Data published in ChEMBL document CHEMBL1201862, “PubChem BioAssay data set” (2004).
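Dose response: 5 concentrations. Exposure: 48 h. Format: 96-well plates. Endpoint: linear interpolation; highest concentration if not reached. Here, GI50 denotes the concentration required for 50% inhibition of growth.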 The source made the active and inactive calls. No stated cut-off is given here; in the data, active = GI50 up to about 1.1 µM and inactive = higher.

Tests used:
Experiment in all cases: NCI tumour cell line growth inhibition, 48 h
[1] = test system: 786-0
[2] = test system: A498
[3] = test system: A549
[4] = test system: ACHN
[5] = test system: CAKI-1
[6] = test system: CCRF-CEM
[7] = test system: COLO 205
[8] = test system: DU-145
[9] = test system: EKVX
[10] = test system: HCC 2998
[11] = test system: HCT-116
[12] = test system: HCT-15
[13] = test system: HL-60
[14] = test system: HOP-62
[15] = test system: HOP-92
[16] = test system: HT-29
[17] = test system: Hs-578T
[18] = test system: IGROV-1
[19] = test system: K562
[20] = test system: KM12
[21] = test system: LOX IMVI
[22] = test system: M14
[23] = test system: MCF7
[24] = test system: MDA-MB-231
[25] = test system: MDA-MB-435
[26] = test system: MDA-N
[27] = test system: MOLT-4
[28] = test system: Malme-3M
[29] = test system: NCI-H226
[30] = test system: NCI-H23
[31] = test system: NCI-H460
[32] = test system: NCI-H522
[33] = test system: NCI/ADR-RES
[34] = test system: OVCAR-3
[35] = test system: OVCAR-4
[36] = test system: OVCAR-5
[37] = test system: OVCAR-8
[38] = test system: PC-3
[39] = test system: RPMI-8226
[40] = test system: RXF 393
[41] = test system: SF-268
[42] = test system: SF-295
[43] = test system: SF-539
[44] = test system: SK-MEL-28
[45] = test system: SK-MEL-2
[46] = test system: SK-MEL-5
[47] = test system: SK-OV-3
[48] = test system: SN12C
[49] = test system: SNB-19
[50] = test system: SNB-75
[51] = test system: SR
[52] = test system: SW-620
[53] = test system: T47D
[54] = test system: TK-10
[55] = test system: U-251
[56] = test system: UACC-257
[57] = test system: UACC-62
[58] = test system: UO-31

Measured: GI50

CNC(=O)O/N=C1\N(C)CN(c2ccccc2)C12CCN(CCCC(=O)c1ccc(F)cc1)CC2
inactive: [1] 75.5 µM | [2] 40 µM | [3] 81.3 µM | [4] 83.8 µM | [5] > 100 µM | [6] 99.3 µM | [7] 18.2 µM | [8] > 100 µM | [9] > 100 µM | [10] 43 µM | [11] 33 µM | [13] 82 µM | [14] 39.4 µM | [15] 35.6 µM | [16] 29.1 µM | [17] > 100 µM | [18] 46.8 µM | [19] 38.5 µM | [20] 27.7 µM | [21] 31.1 µM | [22] 16.9 µM | [23] 47.9 µM | [24] 33.5 µM | [25] 45.9 µM | [26] 39.4 µM | [27] 69 µM | [28] 32.7 µM | [29] > 100 µM | [30] > 100 µM | [31] 44.1 µM | [32] 99.8 µM | [33] 45.9 µM | [34] 55.1 µM | [35] 27.6 µM | [36] 58.2 µM | [37] > 100 µM | [38] > 100 µM | [39] > 100 µM | [40] 83.6 µM | [41] > 100 µM | [42] > 100 µM | [43] 50.6 µM | [44] > 100 µM | [45] 60.8 µM | [46] 18.5 µM | [47] > 100 µM | [48] > 100 µM | [49] > 100 µM | [51] 39.3 µM | [52] > 100 µM | [53] > 100 µM | [54] 79.4 µM | [55] > 100 µM | [56] 20.1 µM | [57] > 100 µM | [58] 90.8 µM
> 100 µM: [12]
active: [50] 1.01 µM

CC1Cc2cc(O)c(O)cc2-c2cc(O)c(O)cc2CC1C (stereo not given)
9.29 µM: [12]
inactive: [1] 14.3 µM | [2] 25 µM | [3] 31.6 µM | [4] 24.6 µM | [5] 17.8 µM | [6] 14.1 µM | [7] 17.8 µM | [8] 36.3 µM | [9] 18.5 µM | [10] 17.4 µM | [11] 17.9 µM | [14] 17.9 µM | [15] 15.3 µM | [16] 24 µM | [17] 9.04 µM | [18] 20.4 µM | [19] 12.8 µM | [20] 4.48 µM | [21] 10.2 µM | [22] 11.5 µM | [23] 12.1 µM | [24] 6.71 µM | [25] 3.16 µM | [26] 3.07 µM | [27] 14 µM | [28] 5.62 µM | [29] 24.3 µM | [30] 14.8 µM | [31] 20.4 µM | [32] 9.57 µM | [33] 12.6 µM | [34] 10.9 µM | [35] 15.6 µM | [36] 18.9 µM | [37] 23.3 µM | [38] 19.3 µM | [39] 32.4 µM | [40] 18.1 µM | [41] 25.9 µM | [42] 4.41 µM | [43] 5.85 µM | [44] 11.9 µM | [45] 4.32 µM | [46] 4.81 µM | [47] 36.8 µM | [48] 20.9 µM | [49] 26.5 µM | [50] > 100 µM | [51] 4.85 µM | [52] 20.5 µM | [53] 25.2 µM | [54] 26.4 µM | [55] 15.2 µM | [56] 12.3 µM | [57] 6.07 µM | [58] 25.3 µM

O=C(Nc1ccccc1)c1nn(-c2cc(S(=O)(=O)O)c([N+](=O)[O-])cc2Cl)[n+](-c2cc(S(=O)(=O)[O-])c([N+](=O)[O-])cc2Cl)n1
inactive: [1] > 100 µM | [3] > 100 µM | [4] > 100 µM | [5] > 100 µM | [6] > 100 µM | [7] > 100 µM | [8] > 100 µM | [9] > 100 µM | [10] > 100 µM | [11] > 100 µM | [13] 40.8 µM | [14] > 100 µM | [16] > 100 µM | [17] > 100 µM | [18] > 100 µM | [19] > 100 µM | [20] > 100 µM | [21] 38.3 µM | [22] > 100 µM | [23] > 100 µM | [24] 43.6 µM | [25] > 100 µM | [26] > 100 µM | [27] > 100 µM | [28] > 100 µM | [29] > 100 µM | [30] > 100 µM | [31] > 100 µM | [32] > 100 µM | [33] > 100 µM | [34] > 100 µM | [35] > 100 µM | [36] > 100 µM | [38] > 100 µM | [39] > 100 µM | [40] > 100 µM | [41] > 100 µM | [42] > 100 µM | [43] > 100 µM | [44] > 100 µM | [45] > 100 µM | [46] > 100 µM | [47] > 100 µM | [48] > 100 µM | [49] > 100 µM | [50] > 100 µM | [51] > 100 µM | [52] > 100 µM | [53] > 100 µM | [54] > 100 µM | [55] > 100 µM | [56] > 100 µM | [57] > 100 µM | [58] > 100 µM
> 100 µM: [12]
